Here are results for 1 compound from ChEMBL document CHEMBL1201862, “PubChem BioAssay data set” (2004).

What all share (assay): NCI tumour cell line growth inhibition, 48 h
Experiment [1] concerns K562.
For experiment [2], the system named is SF-539.
Experiment [3] concerns OVCAR-8.
Experiment [4] concerns SR.
Experiment [5] deals with NCI-H23.
Experiment [6] concerns OVCAR-3.
In experiment [7] the test system is SNB-75.
Experiment [8] has as its system U-251.
For experiment [9], the system named is MDA-MB-231.
For experiment [10], the system named is UACC-62.
For experiment [11], the system named is MOLT-4.
Experiment [12] concerns IGROV-1.
The subject of experiment [13] is OVCAR-5.
Experiment [14] deals with HCC 2998.
Experiment [15] concerns NCI-H226.
The subject of experiment [16] is A498.
Experiment [17] relates to 786-0.
For experiment [18], the system named is HCT-15.
For experiment [19], the system named is CAKI-1.
The subject of experiment [20] is NCI-H522.

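96-well plates; 48 h exposure; 5 concentrations. Endpoints by linear interpolation between flanking doses. Not reached: highest tested concentration assigned. The concentration for 50% growth inhibition is given as GI50.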 Active and inactive are the calls of the source. Rule as the data show it: active = GI50 up to about 1.1 µM and inactive = higher.

In the case of `CC(=NNC(=S)Nc1ccc(C)cc1)c1cccc(C(C)=NNC(=S)Nc2ccc(C)cc2)n1`, the GI50 is 12.2 µM (inactive) in experiment [1]; 7.01 µM (inactive) in experiment [2]; 6.44 µM (inactive) in experiment [3]; 4.02 µM (inactive) in experiment [4]; 22 µM (inactive) in experiment [5]; 1.5 µM (inactive) in [6]. In addition, the GI50 in experiment [7] is 4.69 µM (inactive); in [8] it was 31.3 µM (inactive); in experiment [9], 24.2 µM (inactive); in [10], 7.14 µM (inactive); in [11], 4.18 µM (inactive); in [12], 12.1 µM (inactive). The GI50 in experiment [13] was 60.5 µM (inactive); in experiment [14], 35.6 µM (inactive); in [15], 13.7 µM (inactive); in experiment [16], 20.9 µM (inactive); in experiment [17], 5.9 µM (inactive); in [18] it was 6.82 µM. Moreover, the GI50 in experiment [19] was 4.75 µM (inactive); in experiment [20], 22.3 µM (inactive).
